From patent publication US20210300900A1, “OGA INHIBITOR COMPOUNDS” (Janssen Pharmaceutica NV, priority 2018, published 2021)
Structures can show the parent of a compound that is named as a salt.

Key:
[1] = biological target: T1, recombinant human Meningioma Expressed Antigen 5 (MGEA5), also referred to as O-GcNAcase (OGA) (Homo sapiens, UniProt O60502); assay: OGA biochemical assay (inhibition of FM-GlcNAc hydrolysis, fluorescence); details: FM-GlcNAc substrate; for Emax: read-out: Enzymatic Emax (%); for IC50: read-out: Enzymatic hOGA, pIC50 (converted)
T1 construct: Full length OGA enzyme was purchased at OnGene (cat #TP322411); purchased OnGene (so in the source)
T1 sequence (O60502 1-916): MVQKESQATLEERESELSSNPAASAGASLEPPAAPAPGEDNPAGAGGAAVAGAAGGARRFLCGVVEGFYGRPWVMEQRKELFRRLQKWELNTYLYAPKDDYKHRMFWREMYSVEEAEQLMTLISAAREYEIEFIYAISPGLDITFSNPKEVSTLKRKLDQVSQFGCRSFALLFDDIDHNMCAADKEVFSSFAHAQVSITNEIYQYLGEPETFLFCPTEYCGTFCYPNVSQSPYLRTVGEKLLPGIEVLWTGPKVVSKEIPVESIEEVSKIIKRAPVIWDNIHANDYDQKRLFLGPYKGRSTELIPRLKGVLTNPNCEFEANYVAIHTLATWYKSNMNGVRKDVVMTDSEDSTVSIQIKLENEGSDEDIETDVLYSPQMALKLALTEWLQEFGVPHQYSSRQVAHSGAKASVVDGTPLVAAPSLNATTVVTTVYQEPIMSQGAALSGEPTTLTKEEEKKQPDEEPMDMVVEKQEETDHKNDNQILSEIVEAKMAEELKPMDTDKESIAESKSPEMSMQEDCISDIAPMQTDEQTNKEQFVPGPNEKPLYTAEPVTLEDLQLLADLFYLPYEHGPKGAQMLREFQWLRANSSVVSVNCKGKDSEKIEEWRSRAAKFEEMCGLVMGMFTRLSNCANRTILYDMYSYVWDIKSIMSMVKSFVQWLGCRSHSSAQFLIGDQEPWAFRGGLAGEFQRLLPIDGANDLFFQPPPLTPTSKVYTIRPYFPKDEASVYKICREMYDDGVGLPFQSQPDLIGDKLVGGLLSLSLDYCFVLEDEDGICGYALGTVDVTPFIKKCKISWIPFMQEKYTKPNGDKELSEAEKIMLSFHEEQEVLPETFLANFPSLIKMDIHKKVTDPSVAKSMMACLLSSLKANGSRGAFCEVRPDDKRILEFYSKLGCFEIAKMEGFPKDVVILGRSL
Outline: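 Full-length recombinant human OGA (2 nM) pre-incubated 60 min with compound, then FM-GlcNAc (100 uM final) added in 200 mM citrate/phosphate pH 7.2 with 0.005% Tween-20; 6 h at room temperature, stopped with pH 11.0 carbonate. Fluorescein read at ex 485/em 538 nm; IC50 and Hill coefficient from curve fit against no-inhibitor and saturating-standard controls.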

[2] = biological target: T2, OGA (Homo sapiens, UniProt O60502); assay: OGA cellular assay (ICC detection of O-GlcNAcylated proteins in HEK293 cells inducible for P301L mutant human Tau); type: cell-based; details: 6 hours incubation; for Emax: HEK293, HEK293 cells inducible for P301L mutant human Tau; for EC50: read-out: Cellular hOGA, pEC50 (converted)
T2 construct: endogenous in cells; host or cells: HEK293 cells inducible for P301L mutant human Tau (isoform 2N4R)
T2 sequence (O60502 1-916): T1 sequence (O60502 1-916)
Protocol: HEK293 cells inducible for P301L mutant human Tau (isoform 2N4R) were established at Janssen. Thiamet-G was used for both plate validation (high control) and as reference compound (reference EC50 assay validation). OGA inhibition is evaluated through the immunocytochemical (ICC) detection of O-GlcNAcylated proteins by the use of a monoclonal antibody (CTD110.6; Cell Signaling, #9875) detecting O-GlcNAcylated residues as previously described (Dorfmueller et al. 2010 Chemistry & biology, 17:1250). Inhibition of OGA will result in an increase of O-GlcNAcylated protein levels resulting in an increased signal in the experiment. Cell nuclei are stained with Hoechst to give a cell culture quality control and a rough estimate of immediate compounds toxicity, if any. ICC pictures are imaged with a Perkin Elmer Opera Phenix plate microscope and quantified with the provided software Perkin Elmer Harmony 4.1.
Cells were propagated in DMEM high Glucose (Sigma, #D5796) following standard procedures. 2 days before the cell assay cells are split, counted and seeded in Poly-D-Lysine (PDL) coated 96-wells (Greiner, #655946) plate at a cell density of 12,000 cells per cm^2 (4,000 cells per well) in 100 μl of Assay Medium (Low Glucose medium is used to reduce basal levels of GlcNAcylation) (Park et al. 2014 The Journal of biological chemistry 289:13519). At the day of compound test medium from assay plates was removed and replenished with 90 μl of fresh Assay Medium. 10 μl of compounds at a 10 fold final concentration were added to the wells. Plates were centrifuged shortly before incubation in the cell incubator for 6 hours. DMSO concentration was set to 0.2%. Medium is discarded by applying vacuum. For staining of cells medium was removed and cells washed once with 100 μl D-PBS (Sigma, #D8537). From next step onwards unless other stated assay volume was always 50 μl and incubation was performed without agitation and at room temperature. Cells were fixed in 50 μl of a 4% paraformaldehyde (PFA, Alpha aesar, #043368) PBS solution for 15 minutes at room temperature. […] Before analysis samples were washed 2 times manually for 5 minutes in ICC base buffer.
Imaging is performed using Perkin Elmer Phenix Opera using a water 20×objective and recording 9 fields per well. Intensity readout at 488 nm is used as a measure of O-GlcNAcylation level of total proteins in wells. To assess potential toxicity of compounds nuclei were counted using the Hoechst staining. IC50-values are calculated using parametric non-linear regression model fitting. As a maximum inhibition Thiamet G at a 200 uM concentration is present on each plate. In addition, a concentration response of Thiamet G is calculated on each plate.

[3] = HEK293 cells inducible for P301L mutant human Tau

melting point | Emax [1] | IC50 [1] | Emax ([2]; maximum = Thiamet G 200 uM) | EC50 [2, 3] | Enzymatic Emax (%) [1] | Enzymatic hOGA; pIC50 [1] | Cellular hOGA; pEC50 [2, 3] | Cellular Emax (%) ([2]; HEK293 cells inducible for P301L mutant human Tau, maximum = Thiamet G 200 uM) | Compound
147.5 °C | – | – | – | – | – | – | – | – | CC(=O)Nc1cc(C(C)N2CCC[C@H](Cc3cc(C)nc(C)c3)C2)cnc1C (mixture of isomers) (as salt: HCl) [Product 33]
138 °C | – | – | – | – | – | – | – | – | CC(=O)Nc1ccnc(C(C)N2CCC[C@H](Cc3cc(C)nc(C)c3)C2)c1 (stereo partly shown) (as salt: HCl) [Product 32]
138 °C | – | – | – | – | – | – | – | – | CCOc1cncc(C(C)N2CCC[C@H](Cc3cc(C)nc(C)c3)C2)c1 (mixture of isomers) (as salt: HCl) [Product 44]
161.4 °C | – | – | – | – | – | – | – | – | COc1cncc(C(C)N2CCC[C@H](Cc3cc(C)nc(C)c3)C2)c1 (mixture of isomers) (as salt: HCl) [Product 43]
211.6 °C | – | – | – | – | – | – | – | – | COc1ccc(F)c(C(C)N2CCCC(CNc3cc(C)nc(C(F)(F)F)c3)C2)n1 (stereo not shown) (as salt: HCl) [Product 96]
206.5 °C | – | – | – | – | – | – | – | – | CC(=O)Nc1cc(CN2CCC[C@H](Cc3cc(C)nc(C)c3)C2)cnn1 (as salt: HCl) [Product 62]
– | 97% | 912 nM | 10% | > 1000 nM | – | – | – | – | COc1ccc(F)c(C(C)N2CC[C@H](Cc3cc(C)nc(C)c3)C2)n1 (mixture of isomers) [Product 100]
– | 101% | 38 nM | 53% | 933 nM | – | – | – | – | COc1cncc(C(C)N2CCC[C@H](Cc3cc(C)nc(C)c3)C2)c1 (mixture of isomers) [Product 43]
– | 102% | 2.57 nM | 84% | 47.9 nM | – | – | – | – | CC(=O)Nc1cc(C(C)N2CCC[C@H](Cc3cc(C)nc(C)c3)C2)n[nH]1 (stereo in doubt) [Product 3]
– | 101% | 10.2 nM | 60% | 490 nM | – | – | – | – | CCOc1cnc(C(C)N2CCC[C@H](Cc3cc(C)nc(C)c3)C2)o1 (mixture of isomers) [Product 30]
– | 102% | 17 nM | 94% | 56.2 nM | – | – | – | – | COc1ccc(F)c(C(C)N2CCCC(CNc3cc(C)nc(C)c3)C2)n1 (stereo not shown) [Product 86]
– | 96% | 851 nM | 11% | > 1000 nM | – | – | – | – | Cc1cc(C[C@H]2CCCN(Cc3cc(C4CC4)[nH]n3)C2)cc(C)n1 [Product 20]
206.8 °C | – | – | – | – | – | – | – | – | COc1ccc(F)c(C(C)N2CCCC(CNc3cc(C)nc(C)c3)C2)n1 (stereo not shown) (as salt: HCl) [Product 86]
– | – | – | – | – | 102% | 7.28 | 6.29 | 67% | COc1cccc([C@H](C)N2CCC[C@H](Cc3cc(C)nc(C)c3)C2)n1 [Product 47]
– | 102% | 64.6 nM | 30% | > 1000 nM | – | – | – | – | CC(=O)Nc1cc(C(C)N2CCCC(Oc3ncc(C)nc3C)C2)n[nH]1 (stereo not shown) [Product 117]
– | 102% | 110 nM | 12% | > 1000 nM | – | – | – | – | CC(=O)Nc1nc(C(C)N2CCC[C@H](Cc3cc(C)nc(C)c3)C2)c[nH]1 (mixture of isomers) [Product 136]

melting point | Emax [1] | IC50 [1] | Emax ([2]; maximum = Thiamet G 200 uM) | EC50 [2, 3] | Enzymatic Emax (%) [1] | Enzymatic hOGA; pIC50 [1] | Cellular hOGA; pEC50 [2, 3] | Cellular Emax (%) ([2]; HEK293 cells inducible for P301L mutant human Tau, maximum = Thiamet G 200 uM) | Compound
– | 102% | 60.3 nM | 70% | 427 nM | – | – | – | – | CCOc1nc(CN2CCC[C@H](Cc3cc(C)nc(C)c3)C2)c[nH]1 [Product 23]
– | 102% | 107 nM | 4% | > 1000 nM | – | – | – | – | COc1ccc(F)c(C(C)N2CCCC(Oc3cc(C)nc(C)c3)C2)n1 (stereo not shown) [Product 137]
– | 101% | 52.5 nM | 57% | 525 nM | – | – | – | – | CC(=O)Nc1cc(C(C)N2CCC[C@H](Cc3cc(C)nc(C(F)(F)F)c3)C2)n[nH]1 (mixture of isomers) [Product 70]
– | 100% | 26.9 nM | 41% | > 1000 nM | – | – | – | – | CCOc1cncc(C(C)N2CCC[C@H](Cc3cc(C)nc(C)c3)C2)c1 (mixture of isomers) [Product 44]
– | 91% | 490 nM | 4% | > 1000 nM | – | – | – | – | CC(=O)Nc1cncc(CN2CCC[C@H](Cc3cc(C)nc(C)c3)C2)c1 [Product 34]
– | 100% | 174 nM | 11% | > 1000 nM | – | – | – | – | CC(=O)Nc1cc(CN2CCC[C@H](Cc3cc(C)nc(C)c3)C2)nn1C [Product 6]
– | 101% | 11.5 nM | 72% | 407 nM | – | – | – | – | CNC(=O)c1cncc(C(C)N2CCC[C@H](Cc3cc(C)nc(C)c3)C2)c1 (mixture of isomers) [Product 40]
– | 104% | 43.7 nM | 8% | > 1000 nM | – | – | – | – | COc1cc(C[C@H]2CCCN(C(C)c3nc(OC)ccc3F)C2)cc(C(F)(F)F)n1 (mixture of isomers) [Product 79]
– | 102% | 102 nM | 7% | > 1000 nM | – | – | – | – | CC(=O)Nc1cc(C(C)N2CCCC(Oc3cc(C)nc(C)c3)C2)n[nH]1 (stereo not shown) [Product 80]
– | 92% | 1000 nM | 17% | > 1000 nM | – | – | – | – | CC(=O)Nc1cc(C(C)N2CC[C@H](Cc3cc(C)nc(C(F)(F)F)c3)C2)n[nH]1 (mixture of isomers) [Product 122]
– | 97% | 891 nM | 6% | > 1000 nM | – | – | – | – | COc1ccc(F)c(C(C)N2CCCC(Oc3cc(C)nc(C(F)(F)F)c3)C2)n1 (stereo not shown) [Product 82]
– | 101% | 21.4 nM | 56% | 692 nM | – | – | – | – | CC(=O)Nc1cc(CN2CCC[C@H](Cc3cc(C)nc(C)c3)C2)n[nH]1 [Product 1]
– | 102% | 35.5 nM | 48% | 676 nM | – | – | – | – | COc1ccc(F)c(C(C)N2CCCC(c3cc(C)nc(C)c3)C2)n1 (stereo not shown) [Product 74]
– | 99% | 70.8 nM | 3% | > 1000 nM | – | – | – | – | CCC(=O)Nc1cncc(C(C)N2CCC[C@H](Cc3cc(C)nc(C)c3)C2)c1 (mixture of isomers) [Product 38]
– | 102% | 12.3 nM | 79% | 117 nM | – | – | – | – | COc1cc(NC[C@H]2CCCN(C(C)c3nc(OC)ccc3F)C2)cc(C)n1 (mixture of isomers) [Product 90]
